Laboratory results reported in ChEMBL document CHEMBL5335787, “Fragment-based and structure-guided discovery of perforin inhibitors” (Eur J Med Chem, 2023).

Columns and labels:
[1] = Cytotoxicity against human KHYG-1 cells assessed as cell viability at 1 uM measured after 24 hrs by trypan blue staining based analysis relative to control; type: toxicity; details: read-out: Activity
[2] = target: T1, Perforin-1 (Homo sapiens) (UniProt P14222); test: Inhibition of perforin-dependent cell killing activity of human KHYG-1 cells assessed as reduction in cytotoxicity against K562 cells preincubated for 20 mins followed by 51Cr labelled K562 cells addition and measured after 4 hrs by gamma counter analysis; type: cell-based; details: time 260.0 min
T1 sequence (whole entry): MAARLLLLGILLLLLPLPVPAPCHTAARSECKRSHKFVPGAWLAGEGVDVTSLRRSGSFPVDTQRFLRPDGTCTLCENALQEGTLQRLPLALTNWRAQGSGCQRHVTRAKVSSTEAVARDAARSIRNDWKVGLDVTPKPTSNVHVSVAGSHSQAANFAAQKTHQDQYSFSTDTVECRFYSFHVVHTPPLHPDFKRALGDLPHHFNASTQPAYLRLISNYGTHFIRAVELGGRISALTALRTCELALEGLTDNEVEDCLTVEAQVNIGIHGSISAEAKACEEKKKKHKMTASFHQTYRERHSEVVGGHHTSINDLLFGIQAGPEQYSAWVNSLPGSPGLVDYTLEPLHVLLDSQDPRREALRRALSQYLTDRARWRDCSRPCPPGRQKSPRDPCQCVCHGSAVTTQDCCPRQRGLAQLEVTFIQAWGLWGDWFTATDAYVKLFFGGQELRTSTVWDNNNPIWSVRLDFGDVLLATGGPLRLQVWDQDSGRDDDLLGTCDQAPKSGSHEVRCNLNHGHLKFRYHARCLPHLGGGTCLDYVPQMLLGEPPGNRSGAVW

[3] = Cytotoxicity against human KHYG-1 cells assessed as cell viability at 0.24 uM measured after 24 hrs by trypan blue staining based analysis relative to control; type: toxicity; details: read-out: Activity
Perforin-1 [4] = target: T2, Perforin-1 (Mus musculus, UniProt P10820); test: Binding affinity to CM5 chip immobilised recombinant mouse perforin expressed in baculovirus-infected Sf21 cells by SPR analysis
T2 sequence (P10820 whole entry): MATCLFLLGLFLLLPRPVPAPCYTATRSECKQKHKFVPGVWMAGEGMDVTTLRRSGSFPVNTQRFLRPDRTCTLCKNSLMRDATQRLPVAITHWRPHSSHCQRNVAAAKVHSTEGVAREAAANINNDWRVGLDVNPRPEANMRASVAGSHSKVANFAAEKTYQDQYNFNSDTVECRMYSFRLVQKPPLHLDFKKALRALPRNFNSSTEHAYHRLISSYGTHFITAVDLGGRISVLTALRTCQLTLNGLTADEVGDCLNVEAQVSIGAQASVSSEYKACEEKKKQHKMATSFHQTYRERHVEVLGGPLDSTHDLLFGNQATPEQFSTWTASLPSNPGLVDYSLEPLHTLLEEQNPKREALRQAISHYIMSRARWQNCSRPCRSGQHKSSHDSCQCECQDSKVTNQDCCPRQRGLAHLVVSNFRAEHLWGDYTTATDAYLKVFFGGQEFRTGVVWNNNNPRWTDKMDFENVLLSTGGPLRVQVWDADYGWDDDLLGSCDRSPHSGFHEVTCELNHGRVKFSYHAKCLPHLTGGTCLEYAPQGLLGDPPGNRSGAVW

Perforin-1 [5] = target: T2, Perforin-1; test: Binding affinity to lipid-coated L1 chip immobilised recombinant mouse perforin expressed in baculovirus-infected Sf21 cells by SPR analysis
HepG2 = test: Cytotoxicity against human HepG2 cells assessed as reduction in cell viability at 0.001 to 100 uM incubated for 5 days by SRB assay; type: toxicity, cell-based; details: hepg2, 120 h, dose 0.001-100 µM, time 5 day
[6] = target: T3, Perforin-1 (Mus musculus) (UniProt P10820); test: Binding affinity to recombinant mouse perforin expressed in baculovirus-infected Sf21 cells assessed as change in chemical shift by 19F NMR assay
T3 sequence (whole entry): T2 sequence (P10820 whole entry)

[7] = Cytotoxicity against human KHYG-1 cells assessed as cell viability at 0.38 uM measured after 24 hrs by trypan blue staining based analysis relative to control; type: toxicity; details: read-out: Activity
[8] = target: T1, Perforin-1 (Homo sapiens); test: Inhibition of perforin-dependent cell killing activity of human KHYG-1 cells assessed as reduction in cytotoxicity against K562 cells at 100 uM preincubated for 20 mins followed by 51Cr labelled K562 cells addition and measured after 4 hrs by gamma counter analysis relative to control; type: cell-based; details: time 260.0 min

Compound | viability at 24 h, 1 µM [1] [%] | IC90 [2] [nM] | other results
Cc1cc(C(=O)Nc2ccc(C)c(-c3cnc(N)nc3)c2)ccc1N | > 85 | > 30000 | 
Cc1cc(C(N)=O)cc(S(=O)(=O)c2ccc(C)c(-c3cnc(N)nc3)c2)c1 |  | 29 | viability at 24 h, 0.24 µM [3]: 64%
Cc1cc(S(=O)(=O)c2ccc(C)c(-c3cnc(N)nc3)c2)ccc1C(N)=O | > 85 | 155 | 
Cc1ccc(S(=O)(=O)c2ccc3c(c2)CCN3)cc1-c1cnc(N)nc1 | > 85 | 30 | Kd (Perforin-1 [4]): 85000 nM; Kd (Perforin-1 [5]): ~200 nM; Activity (HepG2): Non-Toxic
Cc1cc2c(cc1-c1cnc(N)nc1)S(=O)(=O)c1ccc(C(N)=O)cc1CC2C (stereo not drawn) | 76 | 40 | 
Cc1ccc(NS(=O)(=O)c2ccc(N)cc2C(F)(F)F)cc1-c1cnc(N)nc1 |  | 1900 | Activity [6]: 5.5 Hz
Cc1ccc(S(=O)(=O)c2ccc(N)cc2C(F)(F)F)cc1-c1cnc(N)nc1 |  | 21 | Activity [6]: 13.2 Hz
Cc1cc(S(=O)(=O)c2ccc3c(c2)CCN3)ccc1-c1cnc(N)nc1 | > 85 | > 3000 | 
Cc1ccc(S(=O)(=O)c2ccc(N)cc2)cc1-c1cccnc1 |  | 43000 | 
Cc1ccc(S(=O)(=O)c2ccc3c(c2)CCO3)cc1-c1cnc(N)nc1 | > 85 | 160 | 
Cc1ccc(S(=O)(=O)c2ccc(N)cc2)cc1-c1cnc(N)nc1 |  | 3400 | 
Cc1cc(S(=O)(=O)c2ccc(C)c(-c3cnc(N)nc3)c2)ccc1N | > 85 | 169 | Kd (Perforin-1 [4]): 110000 nM; Kd (Perforin-1 [5]): ~200 nM
Cc1cc(NC(=O)c2ccc(C)c(-c3cnc(N)nc3)c2)ccc1N | > 85 | > 30000 | 
Cc1cc(S(=O)(=O)c2ccc(C)c(-c3cnc(N)nc3)c2)c(C(F)(F)F)cc1N |  | 203 | Activity [6]: 7.6 Hz
Cc1ccc(S(=O)(=O)c2ccc3c(c2)CCN3)cc1-c1ccc(N)nc1 | > 85 | 361 | 
Cc1ccc(NS(=O)(=O)c2ccc3c(c2)CCN3)cc1-c1cnc(N)nc1 | > 85 | 33 | 
Cc1ccc(S(=O)(=O)c2ccc3c(c2)CCNC3=O)cc1-c1cnc(N)nc1 | > 85 | 40 | 
Cc1ccc(S(=O)(=O)c2ccc3[nH]ccc3c2)cc1-c1cnc(N)nc1 | > 85 | 496 | 
Cc1ccc(S(=O)(=O)c2ccc3c(c2)CCN3C)cc1-c1cnc(N)nc1 | > 85 | 406 | 
Cc1ccc(S(=O)(=O)c2ccc3[nH]ncc3c2)cc1-c1cnc(N)nc1 | > 85 | 281 | 
Cc1ccc(S(=O)(=O)c2ccc3c(c2)CCN3)cc1-c1cnc2n[nH]cc2c1 | 56 | 40 | viability at 24 h, 0.38 µM [7]: 97%
Nc1ccc(S(=O)(=O)c2ccc(N)cc2)cc1 [DAPSONE] |  | > 100000 | inhibition [8]: 65%; Activity (HepG2): Non-Toxic
Cc1cc(NS(=O)(=O)c2ccc(C)c(-c3cnc(N)nc3)c2)ccc1N | > 85 | 2290 | 
Nc1ccc(S(=O)(=O)c2cccc(-c3cnc(N)nc3)c2)c(C(F)(F)F)c1 |  | 131 | Activity [6]: 8.5 Hz
Cc1ccc(S(=O)(=O)c2ccc3c(c2)CNC3=O)cc1-c1cnc(N)nc1 | > 85 | 199 | 
CNC(=O)Nc1ccc(-c2cc(S(=O)(=O)c3ccc4c(c3)CCN4)ccc2C)cc1 | > 85 | 4460 | 
CCNc1ccc(S(=O)(=O)c2ccc(C)c(-c3cnc(N)nc3)c2)c(C(F)(F)F)c1 |  | 31 | Activity [6]: 14.5 Hz
Cc1cc(S(=O)(=O)Nc2ccc(C)c(-c3cnc(N)nc3)c2)ccc1N | > 85 | 70 | 
Cc1ccc(S(=O)(=O)c2ccc3c(c2)CCN3)cc1-c1ccc2n[nH]cc2c1 | > 85 | 1040 | 
